Measurements: ChEMBL document CHEMBL1201862, “PubChem BioAssay data set” (2004)
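Test compounds were applied to cells in 96-well plates for 48 hours at 5 doses. Here, GI50 denotes the concentration required for 50% inhibition of growth.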 Calls of active or inactive are those of the source. Cut-off read from the data, not from the text of the source: active = GI50 up to about 1.1 µM and inactive = higher.

Legend:
Experiment in all cases: DTP human tumour cell line panel, 48 h
UO-31 = tested on: UO-31
EKVX = tested on: EKVX
NCI-H522 = tested on: NCI-H522
MDA-MB-435 = tested on: MDA-MB-435
UACC-257 = tested on: UACC-257
SNB-75 = tested on: SNB-75
SN12C = tested on: SN12C
ACHN = tested on: ACHN
MOLT-4 = tested on: MOLT-4
RXF 393 = tested on: RXF 393
SW-620 = tested on: SW-620
T47D = tested on: T47D
KM12 = tested on: KM12
MCF7 = tested on: MCF7
SNB-19 = tested on: SNB-19
SF-295 = tested on: SF-295
CAKI-1 = tested on: CAKI-1
RPMI-8226 = tested on: RPMI-8226
HOP-92 = tested on: HOP-92
MDA-MB-231 = tested on: MDA-MB-231

Compound	GI50 (UO-31)	GI50 (EKVX)	GI50 (NCI-H522)	GI50 (MDA-MB-435)	GI50 (UACC-257)	GI50 (SNB-75)	GI50 (SN12C)	GI50 (ACHN)	GI50 (MOLT-4)	GI50 (RXF 393)	GI50 (SW-620)	GI50 (T47D)	GI50 (KM12)	GI50 (MCF7)	GI50 (SNB-19)	GI50 (SF-295)	GI50 (CAKI-1)	GI50 (RPMI-8226)	GI50 (HOP-92)	GI50 (MDA-MB-231)
CC(=O)OCC1OC(n2c(N)c(C#N)c(C)c(C#N)c2=S)C(OC(C)=O)C(OC(C)=O)C1OC(C)=O (centres undefined)	> 100 µM (inactive)	> 100 µM (inactive)	> 100 µM (inactive)	> 100 µM (inactive)	> 100 µM (inactive)	> 100 µM (inactive)	> 100 µM (inactive)	> 100 µM (inactive)	> 100 µM (inactive)	> 100 µM (inactive)	> 100 µM (inactive)	> 100 µM (inactive)	> 100 µM (inactive)	> 100 µM (inactive)	> 100 µM (inactive)	> 100 µM (inactive)	> 100 µM (inactive)	> 100 µM (inactive)	–	–
COC(=O)[C@@]12CCCC(=O)[C@@H]1[C@H]1CCCC[C@H]12	> 100 µM (inactive)	> 100 µM (inactive)	> 100 µM (inactive)	> 100 µM (inactive)	> 100 µM (inactive)	> 100 µM (inactive)	> 100 µM (inactive)	> 100 µM (inactive)	30.6 µM (inactive)	> 100 µM (inactive)	> 100 µM (inactive)	–	> 100 µM (inactive)	> 100 µM (inactive)	> 100 µM (inactive)	> 100 µM (inactive)	> 100 µM (inactive)	> 100 µM (inactive)	32.1 µM (inactive)	> 100 µM (inactive)
O=C(Cn1cc(-c2ccccc2)nn1)NC1CCCCC1	–	> 100 µM (inactive)	> 100 µM (inactive)	> 100 µM (inactive)	> 100 µM (inactive)	> 100 µM (inactive)	> 100 µM (inactive)	> 100 µM (inactive)	> 100 µM (inactive)	–	> 100 µM (inactive)	–	> 100 µM (inactive)	> 100 µM (inactive)	> 100 µM (inactive)	> 100 µM (inactive)	> 100 µM (inactive)	> 100 µM (inactive)	> 100 µM (inactive)	> 100 µM (inactive)
O=c1[nH]c(Nc2nc3ccccc3[nH]2)nc(O)c1Cc1ccccc1	> 100 µM (inactive)	> 100 µM (inactive)	> 100 µM (inactive)	> 100 µM (inactive)	> 100 µM (inactive)	24 µM (inactive)	> 100 µM (inactive)	61 µM (inactive)	> 100 µM (inactive)	–	> 100 µM (inactive)	> 100 µM (inactive)	> 100 µM (inactive)	–	67.8 µM (inactive)	–	> 100 µM (inactive)	> 100 µM (inactive)	0.193 µM (active)	> 100 µM (inactive)
CC(=O)O[C@H]1C(=O)[C@@]2(C)[C@H]([C@H](OC(=O)c3ccncc3)[C@]3(O)C[C@H](OC(=O)[C@H](O)[C@@H](NC(=O)c4ccccc4)c4ccccc4)C(C)=C1C3(C)C)[C@]1(OC(C)=O)CO[C@@H]1C[C@@H]2O	> 25 µM (inactive)	> 25 µM (inactive)	1.77 µM (inactive)	0.714 µM (active)	8.3 µM (inactive)	3.56 µM (inactive)	> 16.4 µM (inactive)	> 22.3 µM (inactive)	1.39 µM (inactive)	7.01 µM (inactive)	1.56 µM (inactive)	> 5.94 µM (inactive)	2.61 µM (inactive)	0.918 µM (active)	4.51 µM (inactive)	> 16.9 µM (inactive)	> 25 µM (inactive)	0.881 µM (active)	–	> 20 µM (inactive)
COc1cc2c(cc1C1=NC(C)(C)CO1)OCO2	> 100 µM (inactive)	> 100 µM (inactive)	> 100 µM (inactive)	–	> 100 µM (inactive)	> 100 µM (inactive)	> 100 µM (inactive)	> 100 µM (inactive)	> 100 µM (inactive)	> 100 µM (inactive)	> 100 µM (inactive)	–	> 100 µM (inactive)	–	> 100 µM (inactive)	> 100 µM (inactive)	> 100 µM (inactive)	> 100 µM (inactive)	> 100 µM (inactive)	–
c1ccc(CCN2CCN=C2Cc2ccccc2)cc1	99.1 µM (inactive)	> 100 µM (inactive)	> 100 µM (inactive)	–	> 100 µM (inactive)	> 100 µM (inactive)	> 100 µM (inactive)	> 100 µM (inactive)	–	> 100 µM (inactive)	> 100 µM (inactive)	> 100 µM (inactive)	> 100 µM (inactive)	> 100 µM (inactive)	> 100 µM (inactive)	> 100 µM (inactive)	–	29 µM (inactive)	28.6 µM (inactive)	> 100 µM (inactive)
O=C1C=C(Br)C(=O)C(Br)=C1	> 100 µM (inactive)	> 100 µM (inactive)	67.5 µM (inactive)	–	> 100 µM (inactive)	> 100 µM (inactive)	> 59.6 µM (inactive)	> 85.5 µM (inactive)	33.7 µM (inactive)	> 100 µM (inactive)	59.7 µM (inactive)	–	> 100 µM (inactive)	–	> 100 µM (inactive)	> 100 µM (inactive)	> 100 µM (inactive)	37.6 µM (inactive)	> 100 µM (inactive)	–
C[n+]1c(-c2ccccc2)cc2/c(=C\c3ccc([N+](=O)[O-])cc3)c3ccccc3n21	6.05 µM (inactive)	7.29 µM (inactive)	0.385 µM (active)	2.54 µM (inactive)	4.99 µM (inactive)	3.18 µM (inactive)	2.17 µM (inactive)	3.1 µM (inactive)	0.966 µM (active)	4.45 µM (inactive)	1.79 µM (inactive)	–	3.29 µM (inactive)	2.1 µM (inactive)	3.06 µM (inactive)	3.21 µM (inactive)	15.8 µM (inactive)	–	1.66 µM (inactive)	3.24 µM (inactive)
COc1ccc(C(=O)c2nc3ccccc3nc2N2CCN(c3ccccc3)CC2)cc1OC	> 100 µM (inactive)	> 100 µM (inactive)	> 100 µM (inactive)	> 100 µM (inactive)	> 100 µM (inactive)	> 100 µM (inactive)	–	> 100 µM (inactive)	> 100 µM (inactive)	> 100 µM (inactive)	> 100 µM (inactive)	> 100 µM (inactive)	> 100 µM (inactive)	39.1 µM (inactive)	> 100 µM (inactive)	> 100 µM (inactive)	> 100 µM (inactive)	> 100 µM (inactive)	> 100 µM (inactive)	–
C1=CCC[C@@H]2CN3CCCC/C=C\CCCC[C@H]4C[C@H](CN(CCCCCCCC1)C4)[C@H]2CC3	–	11.3 µM (inactive)	9.42 µM (inactive)	8.69 µM (inactive)	10.2 µM (inactive)	8.95 µM (inactive)	12.5 µM (inactive)	9.68 µM (inactive)	9.79 µM (inactive)	–	9.02 µM (inactive)	12.7 µM (inactive)	7.91 µM (inactive)	9.18 µM (inactive)	10.9 µM (inactive)	9.27 µM (inactive)	9.23 µM (inactive)	8.11 µM (inactive)	–	9.04 µM (inactive)
Cc1ccc(C(=O)Nc2ccc(CP(=O)(O)O)cc2)cc1NC(=O)Nc1cc(C(=O)Nc2ccc(CP(=O)(O)O)cc2)ccc1C	> 100 µM (inactive)	> 100 µM (inactive)	> 100 µM (inactive)	> 100 µM (inactive)	> 100 µM (inactive)	> 100 µM (inactive)	> 100 µM (inactive)	–	> 100 µM (inactive)	> 100 µM (inactive)	> 100 µM (inactive)	> 100 µM (inactive)	> 100 µM (inactive)	> 100 µM (inactive)	–	> 100 µM (inactive)	> 100 µM (inactive)	> 100 µM (inactive)	–	> 100 µM (inactive)
CNc1nc(N)nc(Nc2ccc(I)cc2)c1N=O	27 µM (inactive)	> 100 µM (inactive)	40 µM (inactive)	> 100 µM (inactive)	85.3 µM (inactive)	> 100 µM (inactive)	> 100 µM (inactive)	> 100 µM (inactive)	78.5 µM (inactive)	57.4 µM (inactive)	> 100 µM (inactive)	–	> 100 µM (inactive)	> 100 µM (inactive)	> 100 µM (inactive)	> 100 µM (inactive)	–	> 100 µM (inactive)	–	> 100 µM (inactive)
CN(C)c1ccc(/C=c2\sc3nnc(-c4cccnc4)n3c2=O)cc1	> 100 µM (inactive)	> 100 µM (inactive)	> 100 µM (inactive)	–	> 100 µM (inactive)	> 100 µM (inactive)	> 100 µM (inactive)	> 100 µM (inactive)	> 100 µM (inactive)	> 100 µM (inactive)	> 100 µM (inactive)	–	> 100 µM (inactive)	–	> 100 µM (inactive)	> 100 µM (inactive)	> 100 µM (inactive)	> 100 µM (inactive)	> 100 µM (inactive)	–
CCOc1ccc(N/C(=C(/C(Cl)=C(/Cl)NCCN)[N+](=O)[O-])n2nnc3ccccc32)cc1	37.9 µM (inactive)	50.2 µM (inactive)	–	44.3 µM (inactive)	> 100 µM (inactive)	46.8 µM (inactive)	35.6 µM (inactive)	17.9 µM (inactive)	16.5 µM (inactive)	–	6.79 µM (inactive)	32.3 µM (inactive)	30.8 µM (inactive)	35 µM (inactive)	> 100 µM (inactive)	70.5 µM (inactive)	17.2 µM (inactive)	30.9 µM (inactive)	–	25.9 µM (inactive)
